Test results published in patent US6177592A, “Compounds” (priority 1997, dated 2001).

Tests used:
[1] = test system: HL-60 cells (promyelocytic leukemia cell); test: Viable cell numbers of HL-60 (growth inhibition of cancer cells); assay type: cell-based, human
Experimental: (1) Each 0.5 ml of 0.2 mM CM, 0.8 mM CM or 1.6 mM CM was added to 4.5 ml of RPMI 1640 medium containing 10% of fetal calf serum and 2.5×10^5HL-60 cells (promyelocytic leukemia cell) (ATCC CCL-240) and incubated at 37° C. for 24 hours or 48 hours in the presence of 5% carbon dioxide gas and the numbers of viable cells were measured.
In FIG. 28, open square (.quadrature.) indicates the case where CM is added followed by culturing for 24 hours; black square (.box-solid.) indicates the case where CM is added followed by culturing for 48 hours; open triangle (Δ) indicates the case where no sample was added followed by culturing for 24 hours; and black triangle (.tangle-solidup.) indicates the case where no sample was added followed by culturing for 48 hours.
(4) HL-60 cells (ATCC CCL240) which were incubated at 37° C. in an RPMI 1640 medium (manufactured by Nissui) containing 10% of fetal calf serum (manufactured by Gibco) treated at 56° C. for 30 minutes were suspended in the above medium to make the concentration 2.5×10^5cells/4.5 ml. To this suspension was added 0.5 ml of 100 μM aqueous solution of GM (final concentration: 10 μM) followed by incubating at 37° C. in the presence of 5% carbon dioxide gas for 24 hours, 48 hours and 72 hours. […]

mouse leukemia P-388 = test: Mouse leukemia P-388 survival (macrobiotic effect) in DBA/2 mice; assay type: in vivo; conditions: 10 mg/kg/day i.p., five days
Experimental: GM was diluted with a physiological saline solution to a predetermined concentration and subjected to the following tests.
(2) Mouse leukemia P-388 (1.1×10^6 cells/mouse) was intraperitoneally injected to female DBA/2 mice (body weight: about 20 g) of seven weeks age. After that, GM, CM, GD or CD (10 mg/kg/day) was intraperitoneally injected for consecutive five clays. In the meanwhile, a physiological saline solution was intraperitoneally injected to the control group by the same manner. In the two group each consisting of eight mice, survived numbers, average survived days and macrobiotic rate of the mice were calculated.

[2] = Blood sugar, insulin and lipid in KK-Ay mice; assay type: in vivo, mouse (KK-A^y)
Experimental: KK-A^y Mice (male; four weeks age) were purchased from Clea Japan and, after breeding at our end until ten weeks age, GM was orally administered for 21 days and its influence on sugar, insulin and lipid in blood was investigated. Doses of GM were 30, 100 and 300 mg/kg.
Incidentally, the animals were grouped into four (each group consisting of ten animals) and the four groups were administered with physiological saline solution (5 ml/kg) or 30, 100 or 300 mg/5 ml/kg of GM. Each test substance was orally administered once daily for 21 days and, on the final day of administration, the animals were anesthetized with ether after four hours from the administration of the test substance and blood was collected from artery of lower abdomen. Insulin in serum was measured by an enzyme-immunoassay (commercially available kit: Glazym Insulin-EIATEST,manufactured by Wako Pure Chemicals). Sugar, triglycerides and free fatty acids in serum were measured using an automatic analyzer (type 7070, manufactured by Hitachi) by a hexonase-G6PDH method, a GPO.cndot.DAOS method and an ACS.cndot.ACOD method, respectively. Total cholesterol in serum was measured using an automatic analyzer (type 7070, manufactured by Hitachi) by a cholesterol-oxidase, DAOS method.

[3] = test system: heat shock protein of 70 kDa (HSP70); test: Induction of heat shock protein of 70 kDa in HL-60; assay type: cell-based, human; parameters: key to Induction of Heat Shock Protein: -: no induction was noted; ±: the induction was slight; indicates degree of intensity of induction and the more the numbers of "+", the more the intensity of induction; ++: the more the numbers of "+", the more the intensity of induction; +++: the more the numbers of "+", the more the intensity of induction; conditions: for action of inducing the heat shock protein (in words): Example 14, compared with GM and CM
Experimental: (1) An RPMI 1640 medium (5 ml) containing 10% of fetal bovine serum which contained 2×10^5 cells/ml of HL-60 (ATCC CCL-24C) was placed in each well of a six-well plate, incubated at 37° C. for 24 hours in the presence of 5% of CO2, then GM was added thereto to make its final concentration 0, 0.5, 1.0, 3.0, 5.0, 10.0 or 20.0 μM and the incubation was further continued for eight hours more.
After completion of the incubation, cell numbers were counted and the cells were recovered by centrifugation and washed with PBS to prepare GM-treated cells. In the meanwhile, cells which were heated at 45° C. for ten minutes followed by subjecting to the same incubation were prepared as well.
The cells treated as such were subjected to an SDS-PAGE by a method mentioned in "Molecular Cloning" [Cold Spring Harbor Laboratory Press, (1989)]. The treated cells were suspended in an SDS-PAGE sample buffer to make the concentration 2.5×10^6 cells/ml, the resulting cell suspension was treated at 100° C. for ten minutes and each 5 μl thereof was applied to two sheets of SDS-PAGE gels (5% stacking gel; 10% separation gel) to conduct an electrophoresis. One of the gels was stained with Coomassie Brilliant Blue R250 while another gel was subjected to a blotting to a polyvinylidene difluoride transfer membrane (Immobilon™, manufactured by Millipore, catalog no. IPVH000-10). The membrane was subjected to a blocking at 4° C. for one night with Block Ace (manufactured by Dainippon Pharmaceutical; catalog no. UK-B25).
The blocked membrane was made to react with monoclonal antibody HSP 72/73 (Ab-1) (manufactured by Oncogene Research Products, catalog no. HSP01) which specifically reacted with heat-induced heat shock protein of 70 kDa and washed with TBS containing 0.05% of Tween 20 followed by further washing with TBS. After that, it was made to react with peroxidase-compounded secondary antibody HRP-Rabbit Anti-Mouse IgG (H+L) (manufactured by Zymed Laboratories, catalog no. 61-6520) and washed by the same manner as in the above operation. The membranes which were treated with primary and secondary antibodies as such were made to react with Renaissance™ (a chemiluiminor reagent manufactured by Dupont NEN, catalog no. NEL-100) and photosensitized with an X-ray film to detect the induction of heat shock protein of 70 kDa.
(2) CM was added to the incubated cells to make its final concentration 0, 10, 20, 30, 40 or 50 μM and expression of HSP70 was measured by the method as mentioned in Example 14-(1).

[4] = 30, 100, 300 mg/kg oral, 21 days

SMILES: N[C@@H](CSC1C=C(O)C(=O)C1)C(=O)O (some centres unmarked) [CM]
- inhibition activity of the growth of cancer cells ([1]; 0.5 ml of 0.2, 0.8 or 1.6 mM CM added to 4.5 ml, 24 or 48 hours): intensive inhibition activity of the growth of cancer cells
- macrobiotic effect (average survived days) (mouse leukemia P-388): significant macrobiotic effect
- triglycerides in serum [2, 4]: decreased
- Induction of Heat Shock Protein ([3]; 10 μM CM): +
- Induction of Heat Shock Protein ([3]; 20 μM CM): ++
- Induction of Heat Shock Protein ([3]; 30 μM CM): ++
- Induction of Heat Shock Protein ([3]; 40 μM CM): +
- Induction of Heat Shock Protein ([3]; 50 μM CM): +
- action of inducing the heat shock protein (in words) [3]: action of inducing the heat shock protein

SMILES: N[C@@H](CCC(=O)N[C@@H](CSC1C=C(O)C(=O)C1)C(=O)NCC(=O)O)C(=O)O (some centres unmarked) [GM, 2-hydroxy-4-glutathion-S-yl-2-cyclopenten-1-one]
- viable cell numbers and viability of cells ([1]; 10 μM GM, 24, 48 and 72 hours, vs water control): significantly reduced
- macrobiotic effect (average survived days) (mouse leukemia P-388): significant macrobiotic effect
- blood sugar [2, 4]: decreased in each of the groups administered with GM
- free fatty acids in serum [2, 4]: decreased
- insulin in serum [2, 4]: decreased in each of the groups administered with GM
- total cholesterol in serum [2, 4]: de creased
- effect of lowering blood sugar, insulin and lipid ([2]; Example 13, summary): effect of lowering blood sugar, insulin and lipid
- Induction of Heat Shock Protein ([3]; 0.5 μM GM, eight hours): ±
- Induction of Heat Shock Protein ([3]; 1.0 μM GM, eight hours): ±
- Induction of Heat Shock Protein ([3]; 3.0 μM GM, eight hours): +
- Induction of Heat Shock Protein ([3]; 5.0 μM GM, eight hours): +
- Induction of Heat Shock Protein ([3]; 10 μM GM, eight hours): ++
- Induction of Heat Shock Protein ([3]; 20 μM GM, eight hours): ++
- action of inducing the heat shock protein (in words) [3]: action of inducing the heat shock protein
